Experimental data published in ChEMBL document CHEMBL3885861, “Open TG-GATES”.

Species: Rattus norvegicus
Experiment: Open TG-GATES - Regimen: Single
Assay type: toxicity, organism-based, Sprague-Dawley
Parameters: regimen Single, gender Male, age 6 weeks
Settings: in vivo, po, 300 mg/kg, route gavage, dose level Middle; for APTT / Bas / Eos / Fbg / Hb / Ht / Lym / MCH / MCHC / MCV / Mono / Neu / PT / Plat / RBC / Ret / WBC: tissue Blood; for KIDNEY_L / KIDNEY_R / KIDNEY_TOTAL: tissue Kidney; for LIVER: tissue Liver; for ALP / ALT / AST / BUN / CRE / Ca / Cl / DBIL / GLC / IP / K / LDH / Na / PL / RALB / TBIL / TC / TG / TP / gamma-GTP: tissue Plasma

## COC(=O)C1=C(C)NC(C)=C(C(=O)OC)C1c1ccccc1[N+](=O)[O-] [NIFEDIPINE]
3 h
  APTT: 16.6 s
  Bas: 0.2%
  Eos: 0.6%
  Fbg: 299.2 mg/dL
  Hb: 12.8 g/dL
  Ht: 39.1%
  Lym: 75.2%
  MCH: 21 pg
  MCHC: 32.9%
  MCV: 63.8 fL
  Mono: 3.8%
  Neu: 19.8%
  PT: 15.1 s
  Plat: 126.5 x10_4/uL
  RBC: 613 x10_4/ul
  Ret: 9.4%
  WBC: 113.9 x10_2/uL
  KIDNEY_L: 0.9 g
  KIDNEY_R: 0.9 g
  KIDNEY_TOTAL: 1.8 g
  LIVER: 8.1 g
  ALP: 1571 IU/L
  ALT: 46.2 IU/L
  AST: 74.8 IU/L
  BUN: 27.6 mg/dL
  CRE: 0.3 mg/dL
  Ca: 11.6 mg/dL
  Cl: 96.8 meq/L
  DBIL: 0.01 mg/dL
  GLC: 263.6 mg/dL
  IP: 9.5 mg/dL
  K: 4.7 meq/L
  LDH: 85 IU/L
  Na: 134.6 meq/L
  PL: 135.4 mg/dL
  RALB: 2.6 g/dL
  TBIL: 0.034 mg/dL
  TC: 84.2 mg/dL
  TG: 33.6 mg/dL
  TP: 5.3 g/dL
  gamma-GTP: 1 IU/L
6 h
  TERMINAL_BW: 205.3 g
  APTT: 16.3 s
  Bas: 0%
  Eos: 0.6%
  Fbg: 293.2 mg/dL
  Hb: 13.1 g/dL
  Ht: 40%
  Lym: 75%
  MCH: 20.7 pg
  MCHC: 32.6%
  MCV: 63.5 fL
  Mono: 3.8%
  Neu: 19.8%
  PT: 14.9 s
  Plat: 123.8 x10_4/uL
  RBC: 632 x10_4/ul
  Ret: 10%
  WBC: 101.9 x10_2/uL
  KIDNEY_L: 0.9 g
  KIDNEY_R: 0.9 g
  KIDNEY_TOTAL: 1.8 g
  LIVER: 7.9 g
  ALP: 1503.6 IU/L
  ALT: 51.2 IU/L
  AST: 78.8 IU/L
  BUN: 32.2 mg/dL
  CRE: 0.2 mg/dL
  Ca: 11.3 mg/dL
  Cl: 97.6 meq/L
  DBIL: 0.006 mg/dL
  GLC: 221.4 mg/dL
  IP: 10.7 mg/dL
  K: 5.1 meq/L
  LDH: 78.8 IU/L
  Na: 136.6 meq/L
  PL: 150.4 mg/dL
  RALB: 2.6 g/dL
  TBIL: 0.042 mg/dL
  TC: 90.6 mg/dL
  TG: 19.4 mg/dL
  TP: 5.5 g/dL
  gamma-GTP: 1.2 IU/L
